{"source": "paper PMC3813752", "about": "(PLoS ONE, 2013)", "key": {"[1]": {"molecular_target": "human GPR55 (Homo sapiens, UniProt Q9Y2T6)", "sequence (Q9Y2T6 whole entry)": "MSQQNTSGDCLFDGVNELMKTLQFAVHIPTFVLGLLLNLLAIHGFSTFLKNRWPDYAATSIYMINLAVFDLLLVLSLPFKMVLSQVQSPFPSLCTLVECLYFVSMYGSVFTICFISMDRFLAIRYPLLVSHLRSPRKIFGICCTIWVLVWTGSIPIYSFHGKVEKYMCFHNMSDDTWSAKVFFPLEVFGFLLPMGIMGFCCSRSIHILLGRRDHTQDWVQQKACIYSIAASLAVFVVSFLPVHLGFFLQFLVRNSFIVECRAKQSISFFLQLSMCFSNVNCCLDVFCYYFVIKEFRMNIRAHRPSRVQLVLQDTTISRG", "assay": "β-arrestin recruitment assay (PathHunter), CHO cells expressing GPR55", "conditions": "for inhibition at 10 µM: CHO; for IC50: GPR55 IC50, β-arrestin recruitment, antagonist mode vs. LPI (1 µM); for agonist effect on β-arrestin recruitment at GPR55: test compound 10 µM, related to effect of LPI 1 µM = 100%; for functional property at GPR55 (agonist/antagonist): in words"}, "[2]": {"molecular_target": "T1, human GPR18 (Homo sapiens, UniProt Q14330)", "T1 sequence (Q14330 1-331)": "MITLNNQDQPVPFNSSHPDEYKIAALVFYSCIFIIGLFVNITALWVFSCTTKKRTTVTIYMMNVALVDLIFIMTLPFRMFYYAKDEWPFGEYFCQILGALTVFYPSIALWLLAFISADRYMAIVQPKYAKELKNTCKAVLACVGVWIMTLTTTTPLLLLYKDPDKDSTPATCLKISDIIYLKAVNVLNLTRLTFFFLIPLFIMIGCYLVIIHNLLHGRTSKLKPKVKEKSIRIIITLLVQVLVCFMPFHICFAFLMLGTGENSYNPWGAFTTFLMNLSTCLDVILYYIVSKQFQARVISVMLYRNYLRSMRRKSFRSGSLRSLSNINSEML", "assay": "cell-based", "conditions": "for inhibition at 10 µM: CHO, read-out: % inhibition of Δ9-THC (10 µM)-induced β-arrestin recruitment at GPR18, test compound at 10 µM; for IC50: GPR18 IC50, β-arrestin recruitment, antagonist mode vs. Δ9-THC (10 µM)"}, "[3]": {"molecular_target": "T1, human GPR18", "conditions": "for agonist effect on β-arrestin recruitment at GPR18: test compound 10 µM, related to effect of Δ9-THC 10 µM = 100%; for functional property at GPR18 (agonist/antagonist): in words"}, "[4]": {"molecular_target": "T2, human CB1 receptor (Homo sapiens, UniProt P21554)", "T2 sequence (P21554 whole entry)": "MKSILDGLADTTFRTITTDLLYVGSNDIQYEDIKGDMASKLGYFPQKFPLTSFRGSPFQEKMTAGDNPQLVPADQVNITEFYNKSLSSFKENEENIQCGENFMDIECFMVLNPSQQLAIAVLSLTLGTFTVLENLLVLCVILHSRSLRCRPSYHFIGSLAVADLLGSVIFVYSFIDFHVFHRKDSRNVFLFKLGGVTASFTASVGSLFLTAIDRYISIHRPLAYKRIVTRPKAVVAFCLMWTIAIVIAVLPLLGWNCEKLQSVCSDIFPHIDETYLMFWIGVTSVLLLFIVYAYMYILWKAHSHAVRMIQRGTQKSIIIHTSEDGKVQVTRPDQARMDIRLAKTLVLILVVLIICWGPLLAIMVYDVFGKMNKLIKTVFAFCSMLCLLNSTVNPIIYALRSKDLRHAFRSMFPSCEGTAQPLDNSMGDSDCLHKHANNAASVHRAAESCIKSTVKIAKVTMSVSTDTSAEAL", "conditions": "determined at 100 µM; cited from earlier work"}, "[5]": {"molecular_target": "T3, human CB2 receptor (Homo sapiens, UniProt P34972)", "T3 sequence (P34972 whole entry)": "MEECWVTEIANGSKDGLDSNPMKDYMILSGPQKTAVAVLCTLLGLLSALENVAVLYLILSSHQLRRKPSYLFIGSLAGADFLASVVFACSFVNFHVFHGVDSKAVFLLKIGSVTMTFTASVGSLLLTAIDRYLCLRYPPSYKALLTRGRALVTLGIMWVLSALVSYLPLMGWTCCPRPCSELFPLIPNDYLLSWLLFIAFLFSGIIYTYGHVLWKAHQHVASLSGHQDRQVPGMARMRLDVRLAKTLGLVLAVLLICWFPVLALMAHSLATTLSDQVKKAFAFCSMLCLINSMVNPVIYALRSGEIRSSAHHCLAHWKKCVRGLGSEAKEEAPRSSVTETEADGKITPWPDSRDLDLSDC", "conditions": "in words; cited from earlier work"}, "[6]": {"molecular_target": "T3, human CB2 receptor", "assay": "cAMP accumulation assay, CHO cells expressing CB2", "type": "cell-based", "conditions": "for functional property at CB2 (agonist/antagonist): in words, standard ligands partly from the literature; for efficacy CB2, cAMP accumulation assay: at 10 µM, compared to max. effect of full agonist CP55,940 (1 µM) = 100%"}, "[7]": {"molecular_target": "T3, human CB2 receptor", "assay": "Radioligand binding (heterologous competition) vs. [3H]CP55,940 at CB2"}, "[8]": {"molecular_target": "T2, human CB1 receptor", "assay": "biochemical", "type": "binding", "conditions": "for Ki: membranes of CHO cells expressing human CB1, three independent experiments in duplicates, read-out: Ki CB1, heterologous competition vs. [3H]CP55,940"}, "[9]": {"molecular_target": "T2, human CB1 receptor", "assay": "cAMP accumulation assay, CHO cells expressing CB1", "type": "cell-based", "conditions": "for efficacy CB1, cAMP accumulation assay: at 10 µM, compared to max. effect of full agonist CP55,940 (1 µM) = 100%"}, "[10]": {"conditions": "read-out: % inhibition of LPI (1 µM)-induced β-arrestin recruitment at GPR55, test compound at 10 µM"}, "[11]": {"conditions": "membranes of CHO cells expressing human CB2, three independent experiments in duplicates, read-out: Ki CB2, heterologous competition vs. [3H]CP55,940"}}, "note": "Entries after “also recorded” stand apart in the source; their conditions may differ. Like-named read-outs stand apart in the source and are kept apart here. Marks after values point to notes of the source that are not given here."}
{"molecule": "C=CCc1ccc(O)c(-c2cc(CC=C)ccc2O)c1", "note": "[Compound 9, 4-allyl-2-(5-allyl-2-hydroxyphenyl)phenol, reference compound]", "values": [{"measurement": "EC50", "setting": "[1]", "result": "> 10", "unit": "µM"}, {"measurement": "inhibition at 10 µM", "setting": "[1]; read-out: % inhibition of LPI (1 µM)-induced β-arrestin recruitment at GPR55", "result": 0, "unit": "%"}, {"measurement": "IC50", "setting": "[1]", "result": "> 10", "unit": "µM"}, {"measurement": "agonist effect on β-arrestin recruitment at GPR55", "setting": "[1]", "result": 11, "unit": "%"}, {"measurement": "EC50", "setting": "[2]", "result": "> 10", "unit": "µM"}, {"measurement": "inhibition at 10 µM", "setting": "[2]", "result": 2, "unit": "%"}, {"measurement": "IC50", "setting": "[2]", "result": "> 10", "unit": "µM"}, {"measurement": "agonist effect on β-arrestin recruitment at GPR18", "setting": "[3]", "result": 0, "unit": "%"}, {"measurement": "efficacy CB1, cAMP accumulation assay", "setting": "[4]", "result": 62, "unit": "%"}]}
{"molecule": "C=CCc1ccc(O)c(-c2ccc(OC)c(CC=C)c2)c1", "note": "[Compound 11, 4′-O-Methylhonokiol, reference compound]", "values": [{"measurement": "functional property at CB2", "setting": "[5]", "result": "inverse agonist"}, {"measurement": "functional property at CB2 (agonist/antagonist)", "setting": "[6]", "result": "agonist"}, {"measurement": "EC50", "setting": "[1]", "result": "> 10", "unit": "µM"}, {"measurement": "inhibition at 10 µM", "setting": "[1]; [10]", "result": 87, "unit": "%"}, {"measurement": "IC50", "setting": "[1]", "result": "7.77 ± 0.97", "unit": "µM"}, {"measurement": "functional property at GPR55 (agonist/antagonist)", "setting": "[1]", "result": "antagonist"}, {"measurement": "agonist effect on β-arrestin recruitment at GPR55", "setting": "[1]", "result": 4, "unit": "%"}, {"measurement": "Ki", "setting": "[7]; Ki CB2, heterologous competition vs. [3H]CP55,940, membranes of CHO cells expressing human CB2, three independent experiments in duplicates", "result": "0.0433 ± 0.0171", "unit": "µM"}, {"measurement": "EC50", "setting": "[2]", "result": "> 10", "unit": "µM"}, {"measurement": "inhibition at 10 µM", "setting": "[2]", "result": 37, "unit": "%"}, {"measurement": "IC50", "setting": "[2]", "result": "> 10", "unit": "µM"}, {"measurement": "functional property at GPR18 (agonist/antagonist)", "setting": "[3]", "result": "antagonist"}, {"measurement": "agonist effect on β-arrestin recruitment at GPR18", "setting": "[3]", "result": 0, "unit": "%"}]}
{"molecule": "CCCCCCc1ccc(OC)c(-c2cc(CCC)ccc2O)c1", "note": "[Compound 61b, 5′-Hexyl-2′-methoxy-5-propylbiphenyl-2-ol]", "values": [{"measurement": "reduction of CB1 receptor affinity compared to 61", "setting": "[8]", "result": 2, "unit": "fold"}, {"measurement": "Ki", "setting": "[8]", "result": "0.313 ± 0.125", "unit": "µM"}, {"measurement": "EC50", "setting": "[6]", "result": "0.595 ± 0.15", "unit": "µM"}, {"measurement": "functional property at CB2 (agonist/antagonist)", "setting": "[6]", "result": "partial agonistic activity; also recorded: agonist"}, {"measurement": "Kb", "setting": "[9]", "result": 1.85, "unit": "µM"}, {"measurement": "functional property at CB1 (agonist/antagonist)", "setting": "[9]; in words, standard ligands partly from the literature", "result": "CB1-antagonistic activity; also recorded: antagonist"}, {"measurement": "EC50", "setting": "[1]", "result": "> 10", "unit": "µM"}, {"measurement": "inhibition at 10 µM", "setting": "[1]; [10]", "result": 120, "unit": "%"}, {"measurement": "IC50", "setting": "[1]", "result": "3.25 ± 0.29", "unit": "µM"}, {"measurement": "functional property at GPR55 (agonist/antagonist)", "setting": "[1]", "result": "antagonist"}, {"measurement": "agonist effect on β-arrestin recruitment at GPR55", "setting": "[1]", "result": 0, "unit": "%"}, {"measurement": "Ki", "setting": "[7]; [11]", "result": "0.281 ± 0.101", "unit": "µM"}, {"measurement": "EC50", "setting": "[2]", "result": "> 10", "unit": "µM"}, {"measurement": "inhibition at 10 µM", "setting": "[2]", "result": 22, "unit": "%"}, {"measurement": "IC50", "setting": "[2]", "result": "> 10", "unit": "µM"}, {"measurement": "functional property at GPR18 (agonist/antagonist)", "setting": "[3]", "result": "antagonist"}, {"measurement": "agonist effect on β-arrestin recruitment at GPR18", "setting": "[3]", "result": 0, "unit": "%"}]}
{"molecule": "CCCCCCCCc1ccc(O)c(-c2cc(CCC)ccc2O)c1", "note": "[Compound 63]", "values": [{"measurement": "Ki", "setting": "[8]", "result": "1.66 ± 0.45", "unit": "µM"}, {"measurement": "efficacy CB2, cAMP accumulation assay", "setting": "[6]", "result": "(52%)^b"}, {"measurement": "efficacy CB1, cAMP accumulation assay", "setting": "[9]", "result": "(73%)^b"}, {"measurement": "EC50", "setting": "[1]", "result": "> 10", "unit": "µM"}, {"measurement": "inhibition at 10 µM", "setting": "[1]; [10]", "result": 0, "unit": "%"}, {"measurement": "IC50", "setting": "[1]", "result": "> 10", "unit": "µM"}, {"measurement": "agonist effect on β-arrestin recruitment at GPR55", "setting": "[1]", "result": 0, "unit": "%"}, {"measurement": "Ki", "setting": "[7]; [11]", "result": "0.955 ± 0.418", "unit": "µM"}, {"measurement": "EC50", "setting": "[2]", "result": "> 10", "unit": "µM"}, {"measurement": "inhibition at 10 µM", "setting": "[2]", "result": 123, "unit": "%"}, {"measurement": "IC50", "setting": "[2]", "result": "10.7 ± 0.7", "unit": "µM"}, {"measurement": "agonist effect on β-arrestin recruitment at GPR18", "setting": "[3]", "result": 0, "unit": "%"}]}
{"molecule": "CCCCCc1ccc(O)c(-c2cc(CCCC)ccc2O)c1", "note": "[Compound 64]", "values": [{"measurement": "Ki", "setting": "[8]", "result": "3.61 ± 1.35", "unit": "µM"}, {"measurement": "efficacy CB2, cAMP accumulation assay", "setting": "[6]", "result": "(68%)^b"}, {"measurement": "efficacy CB1, cAMP accumulation assay", "setting": "[9]", "result": "(122%)^b"}, {"measurement": "EC50", "setting": "[1]", "result": "> 10", "unit": "µM"}, {"measurement": "inhibition at 10 µM", "setting": "[1]; [10]", "result": 21, "unit": "%"}, {"measurement": "IC50", "setting": "[1]", "result": "> 10", "unit": "µM"}, {"measurement": "agonist effect on β-arrestin recruitment at GPR55", "setting": "[1]", "result": 15, "unit": "%"}, {"measurement": "Ki", "setting": "[7]; [11]", "result": "0.234 ± 0.039", "unit": "µM"}, {"measurement": "EC50", "setting": "[2]", "result": "> 10", "unit": "µM"}, {"measurement": "inhibition at 10 µM", "setting": "[2]", "result": 94, "unit": "%"}, {"measurement": "IC50", "setting": "[2]", "result": "13.9 ± 0.9", "unit": "µM"}, {"measurement": "agonist effect on β-arrestin recruitment at GPR18", "setting": "[3]", "result": 0, "unit": "%"}]}
{"molecule": "CCCCCCc1ccc(O)c(-c2cc(CCCC)ccc2O)c1", "note": "[Compound 65]", "values": [{"measurement": "Ki", "setting": "[8]", "result": "2.6 ± 0.09", "unit": "µM"}, {"measurement": "efficacy CB2, cAMP accumulation assay", "setting": "[6]", "result": "(49%)^b"}, {"measurement": "efficacy CB1, cAMP accumulation assay", "setting": "[9]", "result": "(95%)^b"}, {"measurement": "EC50", "setting": "[1]", "result": "> 10", "unit": "µM"}, {"measurement": "inhibition at 10 µM", "setting": "[1]; [10]", "result": 15, "unit": "%"}, {"measurement": "IC50", "setting": "[1]", "result": "> 10", "unit": "µM"}, {"measurement": "agonist effect on β-arrestin recruitment at GPR55", "setting": "[1]", "result": 36, "unit": "%"}, {"measurement": "Ki", "setting": "[7]; vs. [3H]CP55,940, read-out: Ki CB2", "result": 0.67, "unit": "µM"}, {"measurement": "EC50", "setting": "[2]", "result": "> 10", "unit": "µM"}, {"measurement": "inhibition at 10 µM", "setting": "[2]", "result": 116, "unit": "%"}, {"measurement": "IC50", "setting": "[2]", "result": "11 ± 0.7", "unit": "µM"}, {"measurement": "agonist effect on β-arrestin recruitment at GPR18", "setting": "[3]", "result": 0, "unit": "%"}]}
